Measured values taken from BindingDB's records for doi:10.7270/Q2K935WV (Nmmlsc, 2008).
Where a name gives a salt, the structure may show the parent alone.

Molecular target: Isoform Bcl-X(L) of Bcl-2-like protein 1 (Bcl-xL) (Homo sapiens, UniProt Q07817)
Test: Bim-Bcl-XL interaction inhibitors, potency, dose response, biochemical, multiplexed, bead flow cytometry, human Bcl-XL (AID 1322)
Details: inactive by the depositor's call; pH 7.4; 4 °C

Sequence of Isoform Bcl-X(L) of Bcl-2-like protein 1 (Bcl-xL) (Q07817 whole entry G70A, canonical isoform): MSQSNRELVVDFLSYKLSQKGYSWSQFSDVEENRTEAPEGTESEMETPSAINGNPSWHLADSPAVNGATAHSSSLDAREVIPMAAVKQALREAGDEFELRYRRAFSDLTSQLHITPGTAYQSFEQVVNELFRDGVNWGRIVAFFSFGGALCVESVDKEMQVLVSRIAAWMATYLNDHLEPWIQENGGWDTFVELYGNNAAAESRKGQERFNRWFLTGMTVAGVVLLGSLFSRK

First: COc1cc2nc(=S)n(CCCN3CCOCC3)c(N)c2cc1OC
Second: COc1cc2nc(=S)[nH]c(NCC3CCCO3)c2cc1OC (stereo not given) [6,7-dimethoxy-4-(2-oxolanylmethylamino)-1H-quinazoline-2-thione]
The EC50 of the first is 2.3-fold higher: 10.9 µM for the first, 4.65 µM for the second.

Going from `Cc1ccnc(Nc2nc(-c3c(C)nc4sccn34)cs2)c1` [[4-(6-Methyl-imidazo[2,1-b]thiazol-5-yl)-thiazol-2-yl]-(4-methyl-pyridin-2-yl)-amine] to `Cc1nc2ncccn2c1-c1csc(Nc2ccccc2)n1` [4-(2-methyl-3-imidazo[1,2-a]pyrimidinyl)-N-phenyl-2-thiazolamine], the EC50 falls from 24 µM to 10.1 µM (2.4-fold). The second is the more potent here.

`COCCCNc1nc(S)nc2cc(OC)c(OC)cc12` [SMR000026607] and `CCOCCCNc1nc(S)nc2cc(OC)c(OC)cc12` are within 1.5-fold of each other in EC50: 3.65 µM for the first, 3.43 µM for the second.

First: CCN1C(=O)/C(=C/C=C2\C=CN(CC)c3ccccc32)SC1=S
Second: C#CCn1cc(C=C2C(=O)c3ccccc3C2=O)c2ccccc21 [SMR000196125]
The EC50 of the first is 2.5-fold higher: 29.5 µM for the first, 11.7 µM for the second.

Compared with `Cc1cc(OCc2cn3cccnc3n2)ccc1Cl` [2-[(4-chloranyl-3-methyl-phenoxy)methyl]imidazo[1,2-a]pyrimidine], `Cc1ccc(OCc2cn3cccnc3n2)cc1` [MLS000723172] is 2.6-fold higher in EC50: 17.9 µM for the first, 46.1 µM for the second.

First: O=C(/C=C/c1ccccc1Cl)c1ccccc(=O)c1O [3-[(E)-3-(2-chlorophenyl)prop-2-enoyl]-2-oxidanyl-cyclohepta-2,4,6-trien-1-one]
Second: Cc1ccc(-c2ccc(/C=C/C(=O)c3ccccc3)o2)cc1
The EC50 of the first is 3.7-fold higher: 19.3 µM for the first, 5.19 µM for the second.

`O=C1c2ccccc2-c2onc3ccc(N4CCCC4)c1c23` [SMR000279741] and `O=C1c2ccccc2-c2onc3ccc(NCc4ccco4)c1c23` [MLS000080234] are within 1.5-fold of each other in EC50: 13.1 µM for the first, 10.2 µM for the second.

`O=c1nc2c(O)cccn2c2c1c(O)nc1ccccc12` [9-Hydroxy-5H-5,8,12a-triaza-benzo[c]phenanthrene-6,7-dione] and `CCOC(=O)c1nc(Nc2ccc(C(=O)OC)cc2)c2ccccc2n1` [ethyl 4-(4-methoxycarbonylanilino)quinazoline-2-carboxylate] are within 1.5-fold of each other in EC50: 13.7 µM for the first, 13.5 µM for the second.

`CCCCNC(=O)c1ccc2nc(-c3ccco3)c(-c3ccco3)nc2c1` [MLS000119995] and `COc1ccc(CCNC(=O)c2ccc3nc(-c4ccco4)c(-c4ccco4)nc3c2)cc1OC` [N-[2-(3,4-dimethoxyphenyl)ethyl]-2,3-di-2-furylquinoxaline-6-carboxamide] are within 1.5-fold of each other in EC50: 25.3 µM for the first, 20.7 µM for the second.

Compared with `COc1ccc(C2=Nn3c(nnc3-c3ccco3)SC2)cc1OC` [6-(3,4-Dimethoxy-phenyl)-3-furan-2-yl-7H-[1,2,4]triazolo[3,4-b][1,3,4]thiadiazine], `CCOc1ccc(C2=Nn3c(nnc3-c3ccccn3)SC2)cc1` [6-(4-ethoxyphenyl)-3-(2-pyridinyl)-7H-[1,2,4]triazolo[3,4-b][1,3,4]thiadiazine] is 5-fold higher in EC50: 2.85 µM for the first, 14.3 µM for the second.

First: CN(N=Cc1ccncc1)C1=NS(=O)(=O)c2ccccc21 [isonicotinaldehyde (1,1-dioxido-1,2-benzisothiazol-3-yl)(methyl)hydrazone]
Second: CN(N=Cc1cccnc1)C1=NS(=O)(=O)c2ccccc21 [SMR000207578]
The EC50 of the first is 7.3-fold lower: 2.64 µM for the first, 19.2 µM for the second. The first is the more potent here.

`COc1ccc(C)cc1-n1c(=O)c2ccccc2c2ccccc2c1=O` [MLS000682999] and `COc1ccc(OC)c(-n2c(=O)c3ccccc3c3ccccc3c2=O)c1` [SMR000236434] are within 1.5-fold of each other in EC50: 18.7 µM for the first, 17.6 µM for the second.

Compared with `c1ccc(Nc2cccc(Nc3ccccc3)n2)cc1` [N,N'-diphenyl-2,6-pyridinediamine], `CCOc1ccccc1-n1c(=O)c2ccccc2c2ccccc2c1=O` [6-(2-ethoxyphenyl)-5H-dibenzo[c,e]azepine-5,7(6H)-dione] is 3.8-fold higher in EC50: 6.98 µM for the first, 26.5 µM for the second. The first is the more potent here.

Compared with `O=C(CSc1ccc2nnc(-c3ccccn3)n2n1)Nc1nccs1` [2-[[3-(2-pyridinyl)-[1,2,4]triazolo[4,3-b]pyridazin-6-yl]thio]-N-(2-thiazolyl)acetamide], `O=C(CSc1ccc2nnc(-c3ccncc3)n2n1)Nc1nccs1` [SMR000320332] is 2-fold higher in EC50: 11.3 µM for the first, 22.2 µM for the second.

Compared with `COc1ccc(-n2c(=O)c3ccccc3c3ccccc3c2=O)c(OC)c1`, `O=c1c2c(-c3ccccc3)csc2nc2c3ccccc3c(NCCN3CCOCC3)nn12` [SMR000352519] is 31-fold lower in EC50: 12.8 µM for the first, 0.41 µM for the second. The second is the more potent here.

Compared with `CCOCCCn1c(N)c(C(=O)Nc2sc3c(c2C(=O)OC)CCCC3)c2nc3ccccc3nc21`, `COCCCn1c(N)c(C(=O)Nc2sc3c(c2C(=O)OC)CCCC3)c2nc3ccccc3nc21` [MLS000595323] is 1.7-fold higher in EC50: 1.97 µM for the first, 3.32 µM for the second.

Compared with `Cc1cc(-c2nnc3n2N=C(c2ccc(-c4ccccc4)cc2)CS3)[nH]n1` [MLS000082991], `c1cncc(-c2nnc3n2N=C(c2cccs2)CS3)c1` [3-pyridin-3-yl-6-thiophen-2-yl-7H-[1,2,4]triazolo[3,4-b][1,3,4]thiadiazine] is 1.6-fold lower in EC50: 11.7 µM for the first, 7.17 µM for the second. The second is the more potent here.

Going from `Cc1cc2n(c1)CCn1c(C)ccc1-2` [MLS000104384] to `Cc1ccc(-c2ccc(/C=C3\SC(N4CCOCC4)=NC3=O)o2)cc1` [(5Z)-5-[[5-(4-methylphenyl)-2-furanyl]methylidene]-2-(4-morpholinyl)-4-thiazolone], the EC50 rises from 26.5 µM to 78.6 µM (3-fold). The first is the more potent here.

Going from `COCCNc1[nH]c(=S)nc2cc(OC)c(OC)cc12` to `COc1cc2nc(=S)[nH]c(NCCc3ccc(S(N)(=O)=O)cc3)c2cc1OC` [MLS000674601], the EC50 falls from 7.43 µM to 0.51 µM (15-fold).

Going from `Cc1ccnc(SCc2cc(=O)c(OC(=O)c3ccc(Cl)c([N+](=O)[O-])c3)co2)n1` [MLS000696790] to `Cc1cc(C)nc(SCc2cc(=O)c(OC(=O)c3ccc(Cl)c([N+](=O)[O-])c3)co2)n1` [4-chloro-3-nitrobenzoic acid [6-[[(4,6-dimethyl-2-pyrimidinyl)thio]methyl]-4-oxo-3-pyranyl] ester], the EC50 falls from 19.6 µM to 5.09 µM (3.9-fold). The second is the more potent here.

First: CSc1nnc2c3cc(C)ccc3n(Cc3ccccc3)c2n1 [SMR000046397]
Second: Cc1cccc(C(=O)/N=c2\c(C#N)cc3c(=O)n4cccc(C)c4nc3n2Cc2ccco2)c1 [N-[3-cyano-1-(furan-2-ylmethyl)-10-methyl-5-oxodipyrido[3,4-c:1',2'-f]pyrimidin-2-ylidene]-3-methylbenzamide]
The EC50 of the first is 2.4-fold lower: 20.6 µM for the first, 50.4 µM for the second. The first is the more potent here.

`COc1cc(/C=C2\CC/C(=C\c3cc(OC)c(O)c(OC)c3)C2=O)cc(OC)c1O` [(2E,5E)-2,5-bis[(4-hydroxy-3,5-dimethoxyphenyl)methylidene]cyclopentan-1-one] and `CCOC(=O)c1c2c3c(cccc3[nH]c1=O)C(=O)c1ccccc1-2` are within 1.5-fold of each other in EC50: 3.02 µM for the first, 2.12 µM for the second.

Compared with `O=C(N[N-][CH+]c1ccc(-c2ccccc2[N+](=O)[O-])o1)c1cncc(Br)c1` [5-bromo-N-[[5-(2-nitrophenyl)furan-2-yl]methylideneamino]pyridine-3-carboxamide], `O=C(Nc1cccc(Cl)c1)Nc1ccnc(-c2cccnc2)n1` [SMR000337179] is 25-fold lower in EC50: 28.3 µM for the first, 1.14 µM for the second. The second is the more potent here.

First: CN(N=C/C=C/c1ccccc1)C1=NS(=O)(=O)c2ccccc21 [(1E,2E)-3-phenylacrylaldehyde (1,1-dioxido-1,2-benzisothiazol-3-yl)(methyl)hydrazone]
Second: O=S1(=O)N=C(N(CCO)N=C/C=C/c2ccccc2)c2ccccc21
The EC50 of the first is 7.1-fold lower: 2.82 µM for the first, 20 µM for the second. The first is the more potent here.

First: c1ccc(-c2nc(N3CCCCCC3)c3ccccc3n2)nc1 [SMR000046752]
Second: CCOC(=O)c1ccc(Nc2nc(C(=O)OCC)nc3ccccc23)cc1
The EC50 of the first is 7.4-fold higher: 21.9 µM for the first, 2.97 µM for the second.

First: Clc1nc(NCc2cccnc2)nc(N2CCOCC2)n1 [MLS000121154]
Second: NC(=O)c1sc2nc3c(c(-c4ccco4)c2c1N)CCC3 [3-amino-4-(2-furyl)-6,7-dihydro-5H-cyclopenta[b]thieno[3,2-e]pyridine-2-carboxamide]
The EC50 of the first is 5.3-fold higher: 18.1 µM for the first, 3.43 µM for the second. The second is the more potent here.

Going from `CN1CCN(C2=C(Cl)C(=O)C(c3cnc(N4CCCCC4)s3)=C(Cl)C2=O)CC1` to `CC(=O)c1ccc(NC(=O)c2ccc3nc(-c4ccco4)c(-c4ccco4)nc3c2)cc1` [N-(4-acetylphenyl)-2,3-di-2-furyl-6-quinoxalinecarboxamide], the EC50 rises from 1 µM to 23.1 µM (23-fold).

In the case of `Cc1ccc(C(=O)/C=C/c2ccc(-c3ccc(C)cc3)o2)cc1` [1-p-Tolyl-3-(5-p-tolyl-furan-2-yl)-propenone], the EC50 is reported as 2.14 µM.

Same assay, conditions: pH 7.4; 4 °C

`Nc1c(C(=O)NC2CC2)sc2nc3c(c(-c4ccco4)c12)CC/C3=C/c1ccco1` [SMR000259554] and `Nc1c(C(=O)NCC2CCCO2)sc2nc3c(c(-c4ccco4)c12)CC/C3=C\c1ccco1` (stereo not given) [SMR000259502] are within 1.5-fold of each other in EC50: 9.01 µM for the first, 6.11 µM for the second.

`CN1CCc2cccc3c2[C@@H]1Cc1ccc(O)c(O)c1-3` and `CN1CCc2cccc3c2[C@H]1Cc1ccc(O)c(O)c1-3` [APOMORPHINE HYDROCHLORIDE] are within 1.5-fold of each other in EC50: 18.6 µM for the first, 18.9 µM for the second.

Compared with `OCCN1CCN(CCCc2c3c(cc4c2CCC4)CCC3)CC1` [MLS000698424], `CCCCNc1[nH]c(=S)nc2cc(OC)c(OC)cc12` [MLS000520261] is 4.2-fold lower in EC50: 16.1 µM for the first, 3.81 µM for the second. The second is the more potent here.

Going from `COc1cc(C=NNC(=O)CN(Cc2ccco2)S(=O)(=O)c2ccccc2)ccc1O` [N-(2-furanylmethyl)-N-[2-[[(E)-(3-methoxy-4-oxo-1-cyclohexa-2,5-dienylidene)methyl]hydrazo]-2-oxoethyl]benzenesulfonamide] to `COc1cccc2c(SCC(=O)NN=Cc3ccc(O)cc3O)cc(C)nc12` [N'-[(E)-(2-hydroxy-4-oxo-1-cyclohexa-2,5-dienylidene)methyl]-2-[(8-methoxy-2-methyl-4-quinolinyl)thio]acetohydrazide], the EC50 rises from 18.4 µM to 83.6 µM (4.5-fold). The first is the more potent here.

First: COc1cc(CN=Nc2nn3cnnc3c3ccccc23)ccc1O [(4E)-2-methoxy-4-[[2-([1,2,4]triazolo[3,4-a]phthalazin-6-yl)hydrazinyl]methylidene]cyclohexa-2,5-dien-1-one]
Second: COc1cccc(CN=Nc2nn3cnnc3c3ccccc23)c1O
The EC50 of the first is 4.3-fold higher: 2.43 µM for the first, 0.57 µM for the second. The second is the more potent here.

Going from `Cc1nnc2ccc(-c3cccc(NC(=O)c4ccco4)c3)nn12` [SMR000324305] to `Cc1nc2ncccn2c1-c1csc(Nc2ccc(O)cc2)n1`, the EC50 falls from 5.17 µM to 0.39 µM (13-fold). The second is the more potent here.

Compared with `O=C(/C=C\c1ccc(-c2ccccc2)o1)c1ccccc1` [(Z)-1-phenyl-3-(5-phenyl-2-furanyl)-2-propen-1-one], `CCN1/C(=C/C(C)=C/c2sc3ccccc3[n+]2CC)Sc2ccccc21` [SMR000354813] is 2.8-fold higher in EC50: 9.36 µM for the first, 26.4 µM for the second. The first is the more potent here.

`Clc1nc2ccccc2cc1CN=Nc1nc2ccccc2[nH]1` [SMR000221568] gave an EC50 of 49.7 µM.
